Converted amounts (≈) assume the structure as drawn.
Experiments:
Acid-base titration (pK) = format: physicochemical; conditions: acid-base titration in METHYLCELLOSOLVE/H2O 4:1 (v/v), 0.01N KOH; salt form per Table IV
Procedure: The following table (Table IV) reports the acid-base titration data of some representative compounds of the invention. The assays were carried out in METHYLCELLOSOLVE/H2 O, 4:1(v/v). A sample is dissolved in METHYLCELLOSOLVE/H2 O, 4:1(v/v) (10 umole in about 20 ml) and then 0.01N HCl (2 ml) is added and the mixture is titrated with 0.01N KOH in the same solvent mixture.

[1] = Isoelectric point (pI) by isoelectrofocusing with bioautography detection; format: physicochemical; conditions: IEF technique, polyacrylamide gel
Method in brief: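 Polyacrylamide gel IEF (8% T, 4% C, 2% ampholytes) at 4 °C, with samples of 0.2–2.5 μg antibiotic focused at 10 W constant power for 3–3.5 h. pI was interpolated from a plot of gel-section pH (eluted in 10 mM KCl) against distance from the anode. Spots were located by bioautography on agar seeded with Bacillus subtilis ATCC 6633, incubated overnight at 37 °C.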

E. coli SKF 12140 = experiment: In vitro antibacterial activity, standard agar-dilution test (MIC); format: cell-based; conditions: inoculum about 10^4 CFU/ml, 18-24 h at 37° C.
Method in brief: (§1)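 Agar-dilution MIC with a final inoculum of about 10^4 CFU/ml, prepared from broth cultures.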

[2] = system: Proteus vulgaris X 19H ATCC 881; experiment: as above; format: cell-based; conditions: inoculum about 10^4 CFU/ml, 18-24 h at 37° C.
Method in brief: as §1

[3] = system: Pseudomonas aeruginosa ATCC 10145; experiment: as above; format: cell-based; conditions: inoculum about 10^4 CFU/ml, 18-24 h at 37° C.
Method in brief: as §1

S. aureus ATCC 6538 = experiment: as above; format: cell-based; conditions: inoculum about 10^4 CFU/ml, 18-24 h at 37° C.
Method in brief: (§2)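 Inoculum ~10^4 CFU/ml final, from diluted broth cultures; Iso-Sensitest broth for staphylococci, Todd broth for streptococci.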

S. aureus Tour = experiment: as above; format: cell-based; conditions: inoculum about 10^4 CFU/ml, 18-24 h at 37° C.
Method in brief: as §2

[4] = system: S. epidermidis ATCC 12228; experiment: as above; format: cell-based; conditions: inoculum about 10^4 CFU/ml, 18-24 h at 37° C.
Method in brief: as §2

S. faecalis ATCC 7080 = experiment: as above; format: cell-based; conditions: inoculum about 10^4 CFU/ml, 18-24 h at 37° C.
Method in brief: as §2

S. pneumoniae UC 41 = experiment: as above; format: cell-based; conditions: inoculum about 10^4 CFU/ml, 18-24 h at 37° C.
Method in brief: as §2

S. pyogenes C 203 = experiment: as above; format: cell-based; conditions: inoculum about 10^4 CFU/ml, 18-24 h at 37° C.
Method in brief: as §2

S. pyogenes L 49 = experiment: In vivo test in mice experimentally infected with S. pyogenes L 49 (ED50); conditions: mice infected with S. pyogenes L 49; for ED50, route of administration os.: oral

SMILES | pK1 (Acid-base titration (pK)) | Isoelectric point (pI) [1] | MIC E. coli SKF 12140 (E. coli SKF 12140) [µg/mL] | MIC Proteus vulgaris X 19H ATCC 881 [2] [µg/mL] | MIC Pseudomonas aeruginosa ATCC 10145 [3] [µg/mL] | MIC S. aureus ATCC 6538 (S. aureus ATCC 6538) [µg/mL] | MIC S. aureus Tour (S. aureus Tour) [µg/mL] | MIC S. epidermidis ATCC 12228 [4] [µg/mL] | MIC S. faecalis ATCC 7080 (S. faecalis ATCC 7080) [µg/mL] | MIC S. pneumoniae UC 41 (S. pneumoniae UC 41) [µg/mL] | MIC S. pyogenes C 203 (S. pyogenes C 203) [µg/mL] | ED50, route of administration os. (S. pyogenes L 49) [mg/kg] | ED50, route of administration s.c (S. pyogenes L 49) [mg/kg] | pK2 (Acid-base titration (pK))
NC1C(=O)NC2Cc3ccc(c(Cl)c3)Oc3cc4cc(c3O)Oc3ccc(cc3Cl)C(O)C3NC(=O)C(NC(=O)C4NC(=O)C(NC2=O)c2cc(O)cc(c2)Oc2cc1ccc2O)c1ccc(O)c(c1)-c1c(O)cc(O)cc1C(C(=O)N1CCOCC1)NC3=O (centres unmarked) [Compound 25] | 6.6 | 7.8 | 16 (≈ 12.6 µM) | 64 (≈ 50.5 µM) | 64 (≈ 50.5 µM) | 0.12 (≈ 0.0946 µM) | 0.12 (≈ 0.0946 µM) | 0.016 (≈ 0.0126 µM) | 0.12 (≈ 0.0946 µM) | 0.12 (≈ 0.0946 µM) | 0.12 (≈ 0.0946 µM) | > 300 | 1.02 | –
CCN(CC)CCCNC(=O)C1NC(=O)C2NC(=O)C(NC(=O)C3NC(=O)C4NC(=O)C(Cc5ccc(c(Cl)c5)Oc5cc3cc(c5O)Oc3ccc(cc3Cl)C2O)NC(=O)C(N)c2ccc(O)c(c2)Oc2cc(O)cc4c2)c2ccc(O)c(c2)-c2c(O)cc(O)cc21 (centres unmarked) [Compound 19] | 6.30 | 8.7 | 8 (≈ 6.1 µM) | 32 (≈ 24.4 µM) | 32 (≈ 24.4 µM) | 0.12 (≈ 0.0915 µM) | 0.12 (≈ 0.0915 µM) | 0.032 (≈ 0.0244 µM) | 0.12 (≈ 0.0915 µM) | 0.12 (≈ 0.0915 µM) | 0.06 (≈ 0.0458 µM) | > 300 | 0.18 | 8.0
NC1C(=O)NC2Cc3ccc(c(Cl)c3)Oc3cc4cc(c3O)Oc3ccc(cc3Cl)C(O)C3NC(=O)C(NC(=O)C4NC(=O)C(NC2=O)c2cc(O)cc(c2)Oc2cc1ccc2O)c1ccc(O)c(c1)-c1c(O)cc(O)cc1C(C(=O)NCCN1CCOCC1)NC3=O (centres unmarked) [Compound 21] | 5.01 | 7.9 | 16 (≈ 12.2 µM) | 128 (≈ 97.6 µM) | 64 (≈ 48.8 µM) | 0.06 (≈ 0.0458 µM) | 0.12 (≈ 0.0915 µM) | 0.016 (≈ 0.0122 µM) | 0.12 (≈ 0.0915 µM) | 0.12 (≈ 0.0915 µM) | 0.12 (≈ 0.0915 µM) | > 300 | 2.2 | 6.8

Source: patent US5521155A, “Amides of teicoplanin compounds” (Gruppo Lepetit S.p.A, priority 1985, dated 1996)
